# Experimental data as given in article PMC11882969 (Nature Communications, 2025).
# “And” between values parts separate entries of the source, which are not always exact repeats. Equal values may be shown once. Read-outs that look alike come from different tables or passages of the source.
# Target: hCB1 (Homo sapiens, UniProt P21554)
# Assay: bioSensAll ebBRET signaling profiling, hCB1
# Format: cell-based
# Parameters: host or cells: HEK293SL cells, transient PEI transfection
# Details: for Gi1 hCB1 response: Gi1 biosensor; for Gi1 hCB1 / GoB hCB1: single replicate values, FigS6a; for Emax [95% CI]: normalized to CP-55,940; for EC50: read-out: EC50 [95% CI]
# [1] = Log [Compound] (M) -13, individual replicate values
# hCB1, sequence (P21554 whole entry): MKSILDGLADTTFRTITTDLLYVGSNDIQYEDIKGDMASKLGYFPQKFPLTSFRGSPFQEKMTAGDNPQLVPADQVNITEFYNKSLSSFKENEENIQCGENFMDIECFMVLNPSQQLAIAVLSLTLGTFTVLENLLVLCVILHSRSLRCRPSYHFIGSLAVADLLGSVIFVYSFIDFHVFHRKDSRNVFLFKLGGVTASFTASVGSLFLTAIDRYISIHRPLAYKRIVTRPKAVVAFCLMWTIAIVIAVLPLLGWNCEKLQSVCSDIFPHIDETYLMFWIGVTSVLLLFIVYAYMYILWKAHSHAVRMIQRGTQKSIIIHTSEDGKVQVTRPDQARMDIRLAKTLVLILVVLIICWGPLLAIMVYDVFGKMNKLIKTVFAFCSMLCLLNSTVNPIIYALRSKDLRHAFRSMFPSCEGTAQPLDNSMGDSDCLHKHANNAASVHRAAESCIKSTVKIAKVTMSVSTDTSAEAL
structure (smiles),measurement,setting,value
"Cc1cc(C(=O)N2CC3(CCC3)[C@@H]2[C@H]2CCCO2)nn1-c1cccc(C(F)(F)F)c1 (single isomer, unassigned) [compound 430]",Gi1 hCB1 response,Log [Compound] (M) -4.22186,4.286
same,Gi1 hCB1 response,Log [Compound] (M) -4.63927,-17.6928
same,Gi1 hCB1 response,Log [Compound] (M) -5.05788,-21.811
same,Gi1 hCB1 response,Log [Compound] (M) -5.47381,-11.1127
same,Gi1 hCB1 response,Log [Compound] (M) -5.89285,-12.5003
same,Gi1 hCB1 response,Log [Compound] (M) -6.31878,-6.681
same,Gi1 hCB1 response,Log [Compound] (M) -6.72585,6.524
same,Gi1 hCB1 response,Log [Compound] (M) -7.14267,-2.6525
same,Gi1 hCB1 response,Log [Compound] (M) -7.55284,0.7047
same,Gi1 hCB1 response,Log [Compound] (M) -8,-4.174
same,Gi1 hCB1 response,Log [Compound] (M) -8.22186,0.4361
same,Gi1 hCB1 response,Log [Compound] (M) -8.39794,-4.779
same,Gi1 hCB1 response,Log [Compound] (M) -8.68787,4.89
same,Gi1 hCB1 response,Log [Compound] (M) -9.15521,-2.764
same,Gi1 hCB1 response,Log [Compound] (M) -9.61989,-2.876
same,Gi1 hCB1 response,Log [Compound] (M) -10.0969,-2.115
same,Gi1 hCB1 response,Log [Compound] (M) -10.5529,4.689
same,Gi1 hCB1 response,Log [Compound] (M) -11.0177,-4.667
same,Gi1 hCB1 response,Log [Compound] (M) -11.4949,-5.853
same,Gi1 hCB1 response,Log [Compound] (M) -11.9208,-0.9963
same,Gi1 hCB1 response,Log [Compound] (M) -12.3979,1.4433
same,Gi1 hCB1 response,Log [Compound] (M) -12.8861,-2.25
same,Gi1 hCB1 response,[1],4.375 and -8.248
same,Gi1 hCB1,Log [Compound] (M) -4.22186,3.789
same,GoB hCB1,Log [Compound] (M) -4.22186,6.14
same,Gi1 hCB1,Log [Compound] (M) -4.63927,-1.761
same,GoB hCB1,Log [Compound] (M) -4.63927,-3.176
same,Gi1 hCB1,Log [Compound] (M) -5.05788,-2.054
same,GoB hCB1,Log [Compound] (M) -5.05788,-0.4061
same,Gi1 hCB1,Log [Compound] (M) -5.47381,0.08902
same,GoB hCB1,Log [Compound] (M) -5.47381,1.896
same,Gi1 hCB1,Log [Compound] (M) -5.89285,0.7519
same,GoB hCB1,Log [Compound] (M) -5.89285,0.547
same,Gi1 hCB1,Log [Compound] (M) -6.31878,0.1815
same,GoB hCB1,Log [Compound] (M) -6.31878,1.86
same,Gi1 hCB1,Log [Compound] (M) -6.72585,1.1836
same,GoB hCB1,Log [Compound] (M) -6.72585,4.665
same,Gi1 hCB1,Log [Compound] (M) -7.14267,0.9678
same,GoB hCB1,Log [Compound] (M) -7.14267,2.363
same,Gi1 hCB1,Log [Compound] (M) -7.55284,0.274
same,GoB hCB1,Log [Compound] (M) -7.55284,5.3306
same,Gi1 hCB1,Log [Compound] (M) -8,0.5207
same,GoB hCB1,Log [Compound] (M) -8,3.155
same,Gi1 hCB1,Log [Compound] (M) -8.22186,0.08902
same,GoB hCB1,Log [Compound] (M) -8.22186,-0.8557
same,Gi1 hCB1,Log [Compound] (M) -8.39794,1.23
same,GoB hCB1,Log [Compound] (M) -8.39794,3.334
same,Gi1 hCB1,Log [Compound] (M) -8.68787,1.214
same,GoB hCB1,Log [Compound] (M) -8.68787,-1.521
same,Gi1 hCB1,Log [Compound] (M) -9.15521,1.245
same,GoB hCB1,Log [Compound] (M) -9.15521,-0.6579
same,Gi1 hCB1,Log [Compound] (M) -9.61989,2.463
same,GoB hCB1,Log [Compound] (M) -9.61989,0.4211
same,Gi1 hCB1,Log [Compound] (M) -10.0969,1.338
same,GoB hCB1,Log [Compound] (M) -10.0969,-1.125
same,Gi1 hCB1,Log [Compound] (M) -10.5529,0.1353
same,GoB hCB1,Log [Compound] (M) -10.5529,-0.9456
same,Gi1 hCB1,Log [Compound] (M) -11.0177,0.5053
same,GoB hCB1,Log [Compound] (M) -11.0177,3.37
same,Gi1 hCB1,Log [Compound] (M) -11.4949,0.5207
same,GoB hCB1,Log [Compound] (M) -11.4949,5.385
same,Gi1 hCB1,Log [Compound] (M) -11.9208,1.523
same,GoB hCB1,Log [Compound] (M) -11.9208,2.741
same,Gi1 hCB1,Log [Compound] (M) -12.3979,0.7674
same,GoB hCB1,Log [Compound] (M) -12.3979,3.263
same,Gi1 hCB1,Log [Compound] (M) -12.8861,0.2586
same,GoB hCB1,Log [Compound] (M) -12.8861,4.072
same,Gi1 hCB1,Log [Compound] (M) -13,1.954 and 3.465
same,GoB hCB1,Log [Compound] (M) -13,3.838 and 3.119
Cc1cc(C(=O)N2CC3(CCC3)[C@H]2[C@@H]2CCCO2)nn1-c1cccc(C(F)(F)F)c1 [‘5490],Gi1 hCB1 response,Log [Compound] (M) -4.22186,126.936
same,Gi1 hCB1 response,Log [Compound] (M) -4.63927,115.566
same,Gi1 hCB1 response,Log [Compound] (M) -5.47381,67.3119
same,Gi1 hCB1 response,Log [Compound] (M) -5.89285,63.8428
same,Gi1 hCB1 response,Log [Compound] (M) -6.31878,33.6054
same,Gi1 hCB1 response,Log [Compound] (M) -6.72585,15.275
same,Gi1 hCB1 response,Log [Compound] (M) -7.14267,11.8954
same,Gi1 hCB1 response,Log [Compound] (M) -7.55284,0.9509
same,Gi1 hCB1 response,Log [Compound] (M) -8,4.733
same,Gi1 hCB1 response,Log [Compound] (M) -8.22186,-9.009
same,Gi1 hCB1 response,Log [Compound] (M) -8.39794,1.018
same,Gi1 hCB1 response,Log [Compound] (M) -8.68787,-1.578
same,Gi1 hCB1 response,Log [Compound] (M) -9.15521,-18.3419
same,Gi1 hCB1 response,Log [Compound] (M) -9.61989,1.018
same,Gi1 hCB1 response,Log [Compound] (M) -10.0969,0.1452
same,Gi1 hCB1 response,Log [Compound] (M) -10.5529,4.89
same,Gi1 hCB1 response,Log [Compound] (M) -11.0177,13.5964
same,Gi1 hCB1 response,Log [Compound] (M) -11.4949,-2.608
same,Gi1 hCB1 response,Log [Compound] (M) -11.9208,1.712
same,Gi1 hCB1 response,Log [Compound] (M) -12.3979,-1.959
same,Gi1 hCB1 response,Log [Compound] (M) -12.8861,-5.584
same,Gi1 hCB1 response,[1],3.39 and 3.458
same,Gi1 hCB1,Log [Compound] (M) -4.22186,94.6851
same,GoB hCB1,Log [Compound] (M) -4.22186,96.1825
same,Gi1 hCB1,Log [Compound] (M) -4.63927,84.6644
same,GoB hCB1,Log [Compound] (M) -4.63927,79.6378
same,Gi1 hCB1,Log [Compound] (M) -5.05788,72.2386
same,GoB hCB1,Log [Compound] (M) -5.05788,59.1548
same,Gi1 hCB1,Log [Compound] (M) -5.47381,56.452
same,GoB hCB1,Log [Compound] (M) -5.47381,52.9325
same,Gi1 hCB1,Log [Compound] (M) -5.89285,36.6417
same,GoB hCB1,Log [Compound] (M) -5.89285,40.0205
same,Gi1 hCB1,Log [Compound] (M) -6.31878,21.1018
same,GoB hCB1,Log [Compound] (M) -6.31878,23.8534
same,Gi1 hCB1,Log [Compound] (M) -6.72585,10.5569
same,GoB hCB1,Log [Compound] (M) -6.72585,12.0564
same,Gi1 hCB1,Log [Compound] (M) -7.14267,5.469
same,GoB hCB1,Log [Compound] (M) -7.14267,9.719
same,Gi1 hCB1,Log [Compound] (M) -7.55284,7.104
same,GoB hCB1,Log [Compound] (M) -7.55284,4.971
same,Gi1 hCB1,Log [Compound] (M) -8,4.236
same,GoB hCB1,Log [Compound] (M) -8,4.953
same,Gi1 hCB1,Log [Compound] (M) -8.22186,2.062
same,GoB hCB1,Log [Compound] (M) -8.22186,0.1334
same,Gi1 hCB1,Log [Compound] (M) -8.39794,3.018
same,GoB hCB1,Log [Compound] (M) -8.39794,6.805
same,Gi1 hCB1,Log [Compound] (M) -8.68787,2.71
same,GoB hCB1,Log [Compound] (M) -8.68787,-2.061
same,Gi1 hCB1,Log [Compound] (M) -9.15521,2.078
same,GoB hCB1,Log [Compound] (M) -9.15521,0.565
same,Gi1 hCB1,Log [Compound] (M) -9.61989,1.014
same,GoB hCB1,Log [Compound] (M) -9.61989,0.7988
same,Gi1 hCB1,Log [Compound] (M) -10.0969,3.712
same,GoB hCB1,Log [Compound] (M) -10.0969,2.4173
same,Gi1 hCB1,Log [Compound] (M) -10.5529,2.602
same,GoB hCB1,Log [Compound] (M) -10.5529,1.752
same,Gi1 hCB1,Log [Compound] (M) -11.0177,1.5536
same,GoB hCB1,Log [Compound] (M) -11.0177,4.395
same,Gi1 hCB1,Log [Compound] (M) -11.4949,3.327
same,GoB hCB1,Log [Compound] (M) -11.4949,4.324
same,Gi1 hCB1,Log [Compound] (M) -11.9208,2.772
same,GoB hCB1,Log [Compound] (M) -11.9208,3.352
same,Gi1 hCB1,Log [Compound] (M) -12.3979,2.124
same,GoB hCB1,Log [Compound] (M) -12.3979,2.741
same,Gi1 hCB1,Log [Compound] (M) -12.8861,2.556
same,GoB hCB1,Log [Compound] (M) -12.8861,2.3094
same,Gi1 hCB1,Log [Compound] (M) -13,3.496 and 2.864
same,GoB hCB1,Log [Compound] (M) -13,2.327 and 3.748
same,pEC50 [95% CI],hCB1 Gi1,5.6 [5.5 – 5.6]
same,Emax [95% CI],hCB1 Gi1,98 [94 – 102]
same,pEC50 [95% CI],hCB1 GoB,5.2 [4.8 – 5.6]
same,Emax [95% CI],hCB1 GoB,118 [94 – 143]
same,pEC50 [95% CI],hCB1 Gz,5.6 [5.2 – 6.1]
same,EC50,hCB1 Gi1,2800 nM
same,EC50,hCB1 GoB,6730 nM
same,EC50,hCB1 Gz,2470 nM
